Source: PubChem BioAssay (NCI)
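How tested: cells in 96-well plates exposed to compound for 48 hours at five concentrations. At the TGI there is no net growth.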

Legend:
Test in all cases: NCI-60 cell line screen, 48 h
[1] = tested on: SNB-19 CNS
[2] = tested on: NCI-H522 lung
[3] = tested on: SK-OV-3 ovarian
[4] = tested on: A498 renal
[5] = tested on: SK-MEL-2 melanoma
[6] = tested on: SF-268 CNS
[7] = tested on: TK-10 renal
[8] = tested on: NCI-H460 lung
[9] = tested on: OVCAR-3 ovarian
[10] = tested on: PC-3 prostate
[11] = tested on: SN12C renal
[12] = tested on: T-47D breast
[13] = tested on: MOLT-4 leukemia
[14] = tested on: BT-549 breast
[15] = tested on: MCF7 breast
[16] = tested on: HOP-92 NSCLC
[17] = tested on: EKVX NSCLC
[18] = tested on: SF-295 CNS
[19] = tested on: SF-539 CNS
[20] = tested on: A549 NSCLC
[21] = tested on: NCI-H226 lung
[22] = tested on: HOP-62 NSCLC
[23] = tested on: OVCAR-8 ovarian
[24] = tested on: ACHN renal
[25] = tested on: K-562 leukemia
[26] = tested on: IGROV1 ovarian
[27] = tested on: NCI/ADR-RES ovarian
[28] = tested on: MDA-N
[29] = tested on: UO-31 renal
[30] = tested on: RPMI-8226 leukemia
[31] = tested on: RXF 393 renal
[32] = tested on: HCT-116 colon
[33] = tested on: LOX IMVI melanoma
[34] = tested on: UACC-62 melanoma
[35] = tested on: SW-620 colon
[36] = tested on: SK-MEL-28 melanoma
[37] = tested on: UACC-257 melanoma
[38] = tested on: U251 CNS
[39] = tested on: CCRF-CEM leukemia
[40] = tested on: COLO 205 colon
[41] = tested on: DU-145 prostate
[42] = tested on: SK-MEL-5 melanoma
[43] = tested on: OVCAR-5 ovarian
[44] = tested on: NCI-H23 lung
[45] = tested on: HL-60(TB) leukemia
[46] = tested on: SNB-75 CNS
[47] = tested on: MALME-3M melanoma
[48] = tested on: HT29 colon
[49] = tested on: HCT-15 colon
[50] = tested on: HS 578T breast
[51] = tested on: SR leukemia
[52] = tested on: M14 melanoma
[53] = tested on: 786-0 renal
[54] = tested on: MDA-MB-231 breast
[55] = tested on: CAKI-1 renal
[56] = tested on: OVCAR-4 ovarian
[57] = tested on: KM12 colon
[58] = tested on: MDA-MB-435
[59] = tested on: HCC-2998 colon

## NCOC(=O)Cc1ccc(Br)cc1
[1]
  TGI: > 100 µM
[2]
  TGI: > 100 µM
[3]
  TGI: > 100 µM
[4]
  TGI: > 100 µM
[5]
  TGI: > 100 µM
[6]
  TGI: > 100 µM
[7]
  TGI: > 100 µM
[8]
  TGI: > 100 µM
[9]
  TGI: > 100 µM
[10]
  TGI: > 100 µM
[11]
  TGI: > 100 µM
[12]
  TGI: > 100 µM
[13]
  TGI: > 100 µM
[14]
  TGI: > 100 µM
[15]
  TGI: > 100 µM
[16]
  TGI: > 100 µM
[17]
  TGI: > 100 µM
[18]
  TGI: > 100 µM
[19]
  TGI: > 100 µM
[20]
  TGI: > 100 µM
[21]
  TGI: > 100 µM
[22]
  TGI: > 100 µM
[23]
  TGI: > 100 µM
[24]
  TGI: > 100 µM
[25]
  TGI: > 100 µM
[26]
  TGI: > 100 µM
[27]
  TGI: > 100 µM
[28]
  TGI: > 100 µM
[29]
  TGI: > 100 µM
[30]
  TGI: > 100 µM
[31]
  TGI: > 100 µM
[32]
  TGI: > 100 µM
[33]
  TGI: > 100 µM
[34]
  TGI: > 100 µM
[35]
  TGI: > 100 µM
[36]
  TGI: > 100 µM
[37]
  TGI: > 100 µM
[38]
  TGI: > 100 µM
[39]
  TGI: > 100 µM
[40]
  TGI: > 100 µM
[41]
  TGI: > 100 µM
[42]
  TGI: > 100 µM
[43]
  TGI: > 100 µM
[44]
  TGI: > 100 µM
[45]
  TGI: > 100 µM
[46]
  TGI: > 100 µM
[47]
  TGI: > 100 µM
[48]
  TGI: > 100 µM
[49]
  TGI: > 100 µM
[50]
  TGI: > 100 µM
[51]
  TGI: > 100 µM
[52]
  TGI: > 100 µM
[53]
  TGI: > 100 µM
[54]
  TGI: > 100 µM

## CCOC(=O)c1c2c(c(O)c3ccccc3c(O)n(Cc3ccccc3)c1C)C(=O)C=CC2=O
[55]
  TGI: > 100 µM
[1]
  TGI: > 100 µM
[2]
  TGI: 92.7 µM
[3]
  TGI: > 100 µM
[4]
  TGI: > 100 µM
[5]
  TGI: > 100 µM
[6]
  TGI: > 100 µM
[7]
  TGI: > 100 µM
[8]
  TGI: > 100 µM
[9]
  TGI: > 100 µM
[10]
  TGI: > 100 µM
[11]
  TGI: > 100 µM
[12]
  TGI: > 100 µM
[13]
  TGI: > 100 µM
[15]
  TGI: 0.769 µM
[16]
  TGI: > 100 µM
[56]
  TGI: > 100 µM
[17]
  TGI: > 100 µM
[18]
  TGI: > 100 µM
[19]
  TGI: > 100 µM
[20]
  TGI: > 100 µM
[21]
  TGI: > 100 µM
[22]
  TGI: > 100 µM
[23]
  TGI: > 100 µM
[24]
  TGI: > 100 µM
[25]
  TGI: > 100 µM
[26]
  TGI: > 100 µM
[27]
  TGI: > 100 µM
[28]
  TGI: > 100 µM
[29]
  TGI: > 100 µM
[30]
  TGI: > 100 µM
[31]
  TGI: 75.9 µM
[32]
  TGI: > 100 µM
[33]
  TGI: > 100 µM
[34]
  TGI: > 100 µM
[57]
  TGI: > 100 µM
[35]
  TGI: > 100 µM
[36]
  TGI: > 100 µM
[37]
  TGI: > 100 µM
[38]
  TGI: > 100 µM
[39]
  TGI: > 100 µM
[40]
  TGI: > 100 µM
[41]
  TGI: > 100 µM
[42]
  TGI: > 100 µM
[43]
  TGI: > 100 µM
[44]
  TGI: > 100 µM
[45]
  TGI: > 100 µM
[58]
  TGI: > 100 µM
[46]
  TGI: > 100 µM
[59]
  TGI: > 100 µM
[47]
  TGI: > 100 µM
[48]
  TGI: > 100 µM
[49]
  TGI: > 100 µM
[50]
  TGI: > 100 µM
[51]
  TGI: > 100 µM
[52]
  TGI: > 100 µM
[53]
  TGI: > 100 µM
[54]
  TGI: > 100 µM
